From article PMC7255010, “Small-molecule activating SIRT6 elicits therapeutic effects and synergistically promotes anti-tumor activity of vitamin D3 in colorectal cancer” (Theranostics, 2020)
Where two headings read alike, the source gives them in different places.

Experiments:
26 CRC cell lines = assay: Cell proliferation, CCK-8, panel of 26 CRC cell lines; format: cell-based; settings: Homo sapiens, CCK-8, 48 h
Protocol: Cell proliferation was evaluated using a Cell Counting Kit-8 (CCK-8) (Dojindo) following the manufacturer's instructions. Briefly, CRC cells were plated in 96-well plates at a density of 5 × 10^3 cells per well. […] Cells treated with DMSO were used as the […] controls, and the final DMSO concentration in the medium was 0.1%. After 48 h of treatment, 10 μL of CCK-8 solution was added to every well and incubated for 1 h at 37 °C. Then, a microplate reader (Synergy H4 Hybrid Reader, BioTek) was used to measure the absorbance of the solvent at 450 nm. The background of drug and culture medium has been deducted in each well. The relative cell proliferation of each treatment group was expressed as the percentage change relative to the […] control group. Each data point is the mean ± s.d. of two or three independent experiments.

HCT116 = assay: Cell cycle analysis (PI staining, flow cytometry); format: cell-based, human; settings: for cell cycle phase distribution, G2/M: 48 h (0 µM: 20.4 ± 4.5); for cell cycle phase distribution, S: 48 h (0 µM: 30.1 ± 4.4); for cell cycle phase distribution, G0/G1: 48 h (0 µM: 49.5 ± 3.5)
Protocol: (§1) Then, cells were collected and fixed with 75% ethanol at 4 °C overnight. The cells were incubated with RNase I (50 μg/mL) in 1× PBS at 37 °C for 30 min and stained with propidium iodide (50 μg/mL) for 15 min. The cells were analyzed by flow cytometry and FACS DIVA software, v6.2 (BD Biosciences). The cell cycle distribution was analyzed using FlowJo 7.6.1 software. The data are presented as the mean ± s.d. of three independent experiments.

HT29 = assay: Cell cycle analysis (PI staining, flow cytometry); format: cell-based, human; settings: for cell cycle phase distribution, G2/M: 48 h (0 µM: 22.6 ± 6.7); for cell cycle phase distribution, S: 48 h (0 µM: 36.9 ± 4.6); for cell cycle phase distribution, G0/G1: 48 h (0 µM: 40.5 ± 2.6)
Protocol: as §1

SW480 = assay: Cell cycle analysis (PI staining, flow cytometry); format: cell-based, human; settings: for cell cycle phase distribution, G2/M: 48 h (0 µM: 13.9 ± 1.8); for cell cycle phase distribution, S: 48 h (0 µM: 38.3 ± 3.6); for cell cycle phase distribution, G0/G1: 48 h (0 µM: 47.7 ± 1.3)
Protocol: as §1

HCT116 xenograft tumors = assay: HCT116 CDX model; format: in vivo, BALB/c nude mice; settings: 20 or 30 mg/kg intraperitoneally every other day for 16 days
Protocol: All animal studies were performed following federal and institutional guidelines approved by the Institutional Animal Care and Use Committee at Shanghai Jiao-Tong University School of Medicine. To establish the CDXs, HCT116 cells (1 × 10^6) suspended in 100 μL of 1× PBS were injected subcutaneously into the flanks of six-week-old male BALB/c nude mice. To establish the PDXs, primary tumors resected from two independent CRC patients (patient #1 and #2) were collected in the culture medium. The necrotic and supporting tissues were carefully removed using sterilized surgical blades. The gross tumor was cut into fragments (2-3 mm in diameter) and inoculated subcutaneously into the flanks of nude mice. The mice were monitored daily, and caliper measurements began when tumors became visible. The tumor volume was monitored every other day via calipers. The tumor volume was calculated using the following formula: (L × W ^2) / 2, where L and W refer to the tumor diameter along the longitudinal and transverse axes, respectively. When the mean tumor volume was approximately 100 to 250 mm^3, the mice were randomly grouped (n = 6 per group for CDXs, n = 8 per group for PDXs), and treatment was initiated. […] After treatment or if meeting the humane endpoint criteria, the mice were sacrificed by CO2 asphyxiation. The tumors were dissected, imaged, and weighed. […]

[1] = tested on: HCT116, HT29, and LOVO cells; assay: Combination drug treatment, CCK-8, Chou-Talalay combination index; format: cell-based, human; settings: MDL-811 (5 to 10 μM) plus 1,25(OH)2D3 (1 to 10 μM), 48 h, three CRC cell lines; CI < 1 = synergism
Protocol: 1,25(OH)2D3 was purchased from TargetMol. For cell proliferation assays, 1,25(OH)2D3 was dissolved in DMSO, stored at -20 °C and protected from light. The maximum final DMSO concentration used in all treatment conditions was 0.25%. […] Then, cell proliferation assays were performed using the CCK-8 method. Combination effects were analyzed by the Chou-Talalay combination index (CI) method. The CI values and the fraction of cells affected values were generated using CompuSyn Version 1.0 software. CI values of < 1, = 1, and > 1 indicate synergism, additivity, and antagonism between the drugs, respectively.

SIRT6 = SIRT6 (Homo sapiens, UniProt Q8N6T7); assay: Histone H3 deacetylation in HEK293T cells (western blot); format: cell-based; set-up: endogenous in cells; host or cells: HEK293T; settings: dose-dependent
SIRT6, sequence (Q8N6T7 whole entry): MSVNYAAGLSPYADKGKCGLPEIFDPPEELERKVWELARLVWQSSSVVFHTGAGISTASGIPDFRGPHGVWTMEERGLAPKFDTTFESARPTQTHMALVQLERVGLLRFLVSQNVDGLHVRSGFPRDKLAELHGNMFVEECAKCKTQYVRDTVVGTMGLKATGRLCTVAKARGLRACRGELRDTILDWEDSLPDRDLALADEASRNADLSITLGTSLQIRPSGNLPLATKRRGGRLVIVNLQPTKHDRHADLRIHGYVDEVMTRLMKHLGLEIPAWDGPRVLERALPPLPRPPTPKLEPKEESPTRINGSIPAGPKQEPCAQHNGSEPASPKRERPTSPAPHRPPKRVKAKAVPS
Protocol: Western blot analysis was performed as described previously. […] After 48 h of treatment, the cells were lysed with 1× SDS and separated by SDS-PAGE, followed by incubation with specific primary antibodies overnight at 4 °C and then with HRP-linked anti-rabbit IgG (#7074, Cell Signaling Technology) or HRP-linked anti-mouse IgG (#7076, Cell Signaling Technology). An Immobilon Western Chemiluminescent HRP Substrate Kit (Merck Millipore) was used for detection. Information regarding the primary antibodies can be found in Table S6. Quantification of western blot data was performed using ImageJ V4.

## Cc1cc(F)c(Br)cc1NS(=O)(=O)c1ccc(NS(=O)(=O)c2cc(Cl)cc(Cl)c2)cc1CN1CCOC[C@H]1C [MDL-811]
26 CRC cell lines; more than 75% (20 of 26) of the CRC cell lines, read-out: IC50 in 20 of 26 CRC cell lines
  IC50: < 25 µM
26 CRC cell lines; range over 26 CRC cell lines, read-out: IC50 values across the 26 CRC cell lines
  IC50: 4.7 to 61 µM
HCT116; HCT116, 5 µM
  cell cycle phase distribution, G2/M: 17.9 ± 4.0
  cell cycle phase distribution, S: 19.0 ± 2.3
  cell cycle phase distribution, G0/G1: 63.2 ± 2.1
HCT116; HCT116, 10 µM
  cell cycle phase distribution, G2/M: 14.1 ± 3.8
  cell cycle phase distribution, S: 19.0 ± 4.3
  cell cycle phase distribution, G0/G1: 66.9 ± 1.4
HT29; HT29, 5 µM
  cell cycle phase distribution, G2/M: 20.2 ± 4.2
  cell cycle phase distribution, S: 25.3 ± 4.5
  cell cycle phase distribution, G0/G1: 54.5 ± 4.1
HT29; HT29, 10 µM
  cell cycle phase distribution, G2/M: 20.5 ± 3.7
  cell cycle phase distribution, S: 19.6 ± 2.3
  cell cycle phase distribution, G0/G1: 59.9 ± 2.7
SW480; SW480, 5 µM
  cell cycle phase distribution, G2/M: 10.8 ± 4.4
  cell cycle phase distribution, S: 26.3 ± 5.1
  cell cycle phase distribution, G0/G1: 62.9 ± 6.0
SW480; SW480, 10 µM
  cell cycle phase distribution, G2/M: 11.9 ± 6.4
  cell cycle phase distribution, S: 18.1 ± 4.9
  cell cycle phase distribution, G0/G1: 70.0 ± 3.8
HCT116 xenograft tumors
  tumor growth: strongly suppressed tumor growth in a dose-dependent manner
[1]
  CI values (Chou-Talalay): < 1
SIRT6
  deacetylation of H3K9Ac, H3K18Ac, and H3K56Ac: significantly enhanced the deacetylation of SIRT6 (H3K9Ac, H3K18Ac, and H3K56Ac)
